Where “and” joins values, the source holds several entries; their conditions need not be identical. Identical values can stand only once. Like-named read-outs stand apart in the source and are kept apart here.
Key:
[1] = biological target: pig kidney FBPase (Sus scrofa, UniProt P00636); test: FBPase activity, enzyme-coupled spectrophotometric assay; type: biochemical; conditions: for IC50: pig kidney FBPase; for inhibition of pig kidney FBPase relative to AMP: compared with AMP, the natural allosteric inhibitor
Protocol: The test were performed using an enzyme-coupled assay^17 with AMP as a control.
(§1) FBPase activity was measured spectrophotometrically by employing the coupling enzymes phosphoglucose isomerase and glucose-6-phosphate dehydrogenase.^17 The reduction of NADP+ to NADPH was monitored directly at 340 nm. Specifically, buffer (0.2 M Tris, 4 mM MgCl2, 4 mM (NH4)2SO4, 0.1 EDTA, pH 7.5), 0.2 mM of NADP+, 1.4 units of phosphoglucose isomerase and 0.5 units of glucose-6-phosphate dehydrogenase, 0-300M of inhibitor and 9 ng of FBPase, were mixed in a cuvette and equilibrated at 30° C. 70M of FBP was then added to initiate the reaction. Absdata were collected as a function of time using a JASCO V-630 spectrophotometer.
(§2) After a lag phase, due to coupling, a straight line was fitted to the progress curve and the slope value was recorded asAbs340 per min. The amount of NADPH produced per minute was calculated using the 340 nm millimolar extinction coefficient of 6.22. At each inhibitor concentration, reactions were performed in duplicate. Inhibition curves were obtained for each compound by plotting the relative activity versus inhibitor concentration.

[2] = biological target: human liver FBPase (Homo sapiens (Human), UniProt P09467); test: as above; type: biochemical; conditions: for IC50: human liver FBPase; for inhibition of human liver FBPase relative to AMP: compared with AMP, the natural allosteric inhibitor
Protocol: Compounds 3 and 4 (see Scheme 1) were synthesized and tested to determine if they could inhibit either pig kidney or human liver FBPase. The test were performed using an enzyme-coupled assay^17 with AMP as a control.
as §1, §2

[3] = test system: plasma glucose levels; conditions: compared with Metformin (250 mg/kg); cited from earlier work
[4] = test system: allosteric site of FBPase; test: TNP-AMP fluorescence competition experiment; type: binding; conditions: TNP-AMP at 0.5 times its Kd
Protocol: Fluorescence data were collected using a JASCO FP-6300 spectro-fluorometer. Excitation and emission wavelengths of 410 and 535 nm respectively were used for TNPAMP (Molecular Probes). 0.15 mg of the respective FBPases, 0.08 mM MgCl and 20M fructose 1, 6-2 bisphosphate in 50 mM Tris-acetate buffer, pH 7.5, was added to a 2 mL cuvette and stirred. 3.5 M of TNP-AMP was added to the cuvette and the emission data was obtained Microliter volumes of 3 were subsequently added to the cuvette and resultant emission data was obtained after each addition. The final concentration of 3 in the enzyme solution was 6M.

[5] = Solubility (remark in competition experiment); type: physicochemical
[6] = read-out: FBPase, IC50 Human Liver

Sequence of human liver FBPase (P09467 2-338): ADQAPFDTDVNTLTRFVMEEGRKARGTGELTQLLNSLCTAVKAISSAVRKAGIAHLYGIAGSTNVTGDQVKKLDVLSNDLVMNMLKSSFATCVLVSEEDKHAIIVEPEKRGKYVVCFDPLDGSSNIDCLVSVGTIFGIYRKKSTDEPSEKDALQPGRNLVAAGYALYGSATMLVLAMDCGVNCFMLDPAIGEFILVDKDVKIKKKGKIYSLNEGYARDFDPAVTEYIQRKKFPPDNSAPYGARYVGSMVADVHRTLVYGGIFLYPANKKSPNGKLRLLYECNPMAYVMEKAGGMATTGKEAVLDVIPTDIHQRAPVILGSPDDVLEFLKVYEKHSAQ
Sequence of pig kidney FBPase (P00636 2-338 limits assumed): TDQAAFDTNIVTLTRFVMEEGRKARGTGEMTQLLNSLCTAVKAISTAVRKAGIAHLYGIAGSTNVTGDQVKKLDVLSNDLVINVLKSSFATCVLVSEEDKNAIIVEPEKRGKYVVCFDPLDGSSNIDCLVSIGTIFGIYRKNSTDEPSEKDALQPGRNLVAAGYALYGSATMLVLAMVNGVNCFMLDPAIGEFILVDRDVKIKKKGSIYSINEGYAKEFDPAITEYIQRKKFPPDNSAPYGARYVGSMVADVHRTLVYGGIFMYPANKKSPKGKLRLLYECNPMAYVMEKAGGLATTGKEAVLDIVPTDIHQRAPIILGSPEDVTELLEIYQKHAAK

Row | SMILES | IC50 [1] [µM] | IC50 [2, 6] | inhibition of pig kidney FBPase relative to AMP [1] | inhibition of human liver FBPase relative to AMP [2] | solubility [5] | lowering of plasma glucose levels [3] | IC50 ([2]; read-out: IC50 human liver FBPase) [µM] | TNP-AMP fluorescence on addition of increasing concentrations of compound [4]
1 | Nc1ncnc2c1ncn2[C@@H]1O[C@H](COP(=O)(O)O)[C@@H](O)[C@H]1O [AMP, reference compound] | 1.3 | 9.7 µM and 9.8 µM |  |  |  |  |  | 
2 | C=C(C)C(O)Cc1c(O)c(C(=O)C(C)CC)c(O)c2c1oc1c(C(=O)C(C)CC)c(O)c(CC=C(C)C)c(O)c12 (stereo not shown) [Compound 1, achyrofuran] |  |  |  |  |  | better than that of Metformin |  | 
3 | CC(=O)C1=C(O)C=C2Oc3c(C(C)=O)c(O)c(C)c(O)c3[C@@]2(C)C1=O [Compound 2, (+)-usnic acid, reference compound] |  |  |  |  |  |  | 370 | 

Now from value to compound, other results behind:

Row | IC50 [1] [µM] | IC50 [2, 6] | inhibition of pig kidney FBPase relative to AMP [1] | inhibition of human liver FBPase relative to AMP [2] | solubility [5] | SMILES | lowering of plasma glucose levels [3] | IC50 ([2]; read-out: IC50 human liver FBPase) [µM] | TNP-AMP fluorescence on addition of increasing concentrations of compound [4]
4 | 1.5 ± 0.1 | 8.1 µM | comparable to that of AMP | comparable to that of AMP | relatively low solubility | CC(C)CC(=O)c1c(O)cc2oc3c(C(=O)CC(C)C)c(O)cc(O)c3c2c1O [Compound 3, 1,1′-(1,3,7,9-tetrahydroxydibenzofuran-2,6-diyl)bis(3-methylbutan-1-one)] |  |  | substantial diminution of the TNP-AMP fluorescence
5 | 5 | 6 µM | comparable to that of AMP | comparable to that of AMP | relatively low solubility | CCC(C)C(=O)c1c(O)cc2oc3c(C(=O)C(C)CC)c(O)cc(O)c3c2c1O (stereo not shown) [Compound 4, 1,1′-(1,3,7,9-tetrahydroxydibenzofuran-2,6-diyl)bis(2-methylbutan-1-one)] |  |  | substantial diminution of the TNP-AMP fluorescence

Reference: patent publication US9273021B2, “Dibenzofuran derivatives as inhibitors of fructose 1,6-bisphosphatase and methods of use thereof” (TRUSTEES OF BOSTON COLLEGE, priority 2009, dated 2016)
